# Results taken from PubChem BioAssay AID248 (DTP/NCI, 2004).
# “And” between values parts separate entries of the source, which are not always exact repeats. Equal values may be shown once. Inconclusive results and toxic doses are left out.
# System: L1210 leukemia ip in BDF1 mice, survival T/C
# Experiment: NCI In Vivo Anticancer Drug Screen. Data for tumor model L1210 Leukemia (intraperitoneal) in B6D2F1 (BDF1) mice
# Settings: endpoint: mean survival time, higher = longer survival
# Method in brief: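 In this screen, tumor-bearing mice given compound are compared to those given vehicle, and their survival values are reported as a treated-to-control quotient.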
# [1] = dose: 100.0 mg/kg/injection, schedule: Q01DX009 (ip), vehicle: Klucel (hydroxypropylcellulose) (HPC)
# [2] = dose: 200.0 mg/kg/injection, schedule: Q01DX009 (ip), vehicle: Klucel (hydroxypropylcellulose) (HPC)
# [3] = dose: 400.0 mg/kg/injection, schedule: Q01DX009 (ip), vehicle: Klucel (hydroxypropylcellulose) (HPC)
# [4] = dose: 50.0 mg/kg/injection, schedule: Q01DX001 (ip), vehicle: Klucel (hydroxypropylcellulose) (HPC)
# [5] = dose: 50.0 mg/kg/injection, schedule: Q01DX009 (ip), vehicle: Klucel (hydroxypropylcellulose) (HPC)
# [6] = dose: 100.0 mg/kg/injection, schedule: Q04DX003 (ip), vehicle: Klucel (hydroxypropylcellulose) (HPC)
# [7] = dose: 50.0 mg/kg/injection, schedule: Q01DX001 (ip), vehicle: carboxymethylcellulose (CMC)
# [8] = dose: 100.0 mg/kg/injection, schedule: Q01DX001 (ip), vehicle: carboxymethylcellulose (CMC)
# [9] = dose: 200.0 mg/kg/injection, schedule: Q01DX001 (ip), vehicle: carboxymethylcellulose (CMC)
# [10] = dose: 400.0 mg/kg/injection, schedule: Q01DX001 (ip), vehicle: carboxymethylcellulose (CMC)
compound,measurement,setting,value
CCCCCc1c2c(c(CCCCC)c3c1-c1cccc4cccc-3c14)-c1ccc(C)cc1C2,T/C,"dose: 100.0 mg/kg/injection, schedule: Q01DX001 (ip), vehicle: saline with Tween-80",92 % of control
same,T/C,"dose: 400.0 mg/kg/injection, schedule: Q01DX001 (ip), vehicle: saline with Tween-80",87 % of control
S=C(Nc1cccc2ccccc12)N1CCOCC1,T/C,[1],94 % of control
same,T/C,[2],120 % of control
same,T/C,[3],96 % of control
O=C(OCc1ccccc1CN1CCOCC1)c1cccc(Br)c1,T/C,"dose: 25.0 mg/kg/injection, schedule: Q04DX002 (ip), vehicle: Klucel (hydroxypropylcellulose) (HPC)",93 % of control
same,T/C,"dose: 50.0 mg/kg/injection, schedule: Q04DX002 (ip), vehicle: Klucel (hydroxypropylcellulose) (HPC)",95 % of control and 108 % of control
same,T/C,"dose: 100.0 mg/kg/injection, schedule: Q04DX002 (ip), vehicle: Klucel (hydroxypropylcellulose) (HPC)",108 % of control
same,T/C,"dose: 200.0 mg/kg/injection, schedule: Q04DX002 (ip), vehicle: Klucel (hydroxypropylcellulose) (HPC)",108 % of control and 92 % of control
COc1ccc2c(c1)CCC1C2=CCC2C(=O)CCC(=O)C21 (stereo not drawn),T/C,[4],101 % of control
same,T/C,"dose: 100.0 mg/kg/injection, schedule: Q01DX001 (ip), vehicle: Klucel (hydroxypropylcellulose) (HPC)",101 % of control
same,T/C,"dose: 200.0 mg/kg/injection, schedule: Q01DX001 (ip), vehicle: Klucel (hydroxypropylcellulose) (HPC)",93 % of control
CCNC(C)(C)C(Cl)c1ccc(Cl)s1 (stereo not drawn),T/C,"dose: 25.0 mg/kg/injection, schedule: Q01DX009 (ip), vehicle: Klucel (hydroxypropylcellulose) (HPC)",90 % of control
same,T/C,"dose: 25.0 mg/kg/injection, schedule: Q04DX003 (ip), vehicle: Klucel (hydroxypropylcellulose) (HPC)",101 % of control
same,T/C,[5],89 % of control
same,T/C,"dose: 50.0 mg/kg/injection, schedule: Q04DX003 (ip), vehicle: Klucel (hydroxypropylcellulose) (HPC)",97 % of control
same,T/C,[1],90 % of control
same,T/C,[6],101 % of control and 102 % of control
Clc1ccc2c(c1)Sc1ccc(Cl)cc1S2,T/C,"dose: 100.0 mg/kg/injection, schedule: Q04DX002 (ip), vehicle: saline with Tween-80",101 % of control
same,T/C,"dose: 200.0 mg/kg/injection, schedule: Q04DX002 (ip), vehicle: saline with Tween-80",101 % of control
same,T/C,"dose: 400.0 mg/kg/injection, schedule: Q04DX002 (ip), vehicle: saline with Tween-80",97 % of control
C(=NCC(CCN1CCCCC1)(CCN1CCCCC1)c1cccc2ccccc12)C(CCN1CCCCC1)(CCN1CCCCC1)c1cccc2ccccc12,T/C,"dose: 5.0 mg/kg/injection, schedule: Q04DX003 (ip), vehicle: Klucel (hydroxypropylcellulose) (HPC)",119 % of control
same,T/C,"dose: 10.0 mg/kg/injection, schedule: Q04DX003 (ip), vehicle: Klucel (hydroxypropylcellulose) (HPC)",114 % of control
same,T/C,"dose: 20.0 mg/kg/injection, schedule: Q04DX003 (ip), vehicle: Klucel (hydroxypropylcellulose) (HPC)",110 % of control
N/C(=N\N=C\c1ccc(-c2ccccc2)cc1)N[N+](=O)[O-],T/C,[7],104 % of control
same,T/C,[8],100 % of control
same,T/C,[9],93 % of control
COc1ccc(Cl)cc1NC(=O)Oc1ccc(F)cc1,T/C,[1],87 % of control
same,T/C,[2],97 % of control
same,T/C,[3],87 % of control
CCCCCCCCCCCCS,T/C,[8],103 % of control
same,T/C,[9],105 % of control
same,T/C,[10],103 % of control
N#Cc1cc2ccccc2n(O)c1=N,T/C,"dose: 75.0 mg/kg/injection, schedule: Q04DX003 (ip), vehicle: saline",93 % of control
same,T/C,"dose: 150.0 mg/kg/injection, schedule: Q04DX003 (ip), vehicle: saline",109 % of control
same,T/C,"dose: 300.0 mg/kg/injection, schedule: Q04DX003 (ip), vehicle: saline",107 % of control
CC1(C)C2CCC1(CS(=O)(=O)Cl)C(=O)C2 (stereo not drawn),T/C,[7],100 % of control
same,T/C,[8],97 % of control
same,T/C,[9],97 % of control
Nc1ncnc(Nc2ccccc2[N+](=O)[O-])c1[N+](=O)[O-],T/C,"dose: 12.5 mg/kg/injection, schedule: Q01DX001 (ip), vehicle: Klucel (hydroxypropylcellulose) (HPC)",97 % of control
same,T/C,"dose: 25.0 mg/kg/injection, schedule: Q01DX001 (ip), vehicle: Klucel (hydroxypropylcellulose) (HPC)",87 % of control
same,T/C,[4],87 % of control
CCOC(=O)c1cnc2c(ccc3cc(OC)ccc32)c1Cl,T/C,[5],101 % of control
same,T/C,[1],97 % of control
same,T/C,[2],101 % of control
Cc1ccc(NC(=O)c2ccc(Cl)cc2)cc1,T/C,[1],95 % of control
same,T/C,[6],97 % of control
same,T/C,[2],99 % of control
same,T/C,"dose: 200.0 mg/kg/injection, schedule: Q04DX003 (ip), vehicle: Klucel (hydroxypropylcellulose) (HPC)",103 % of control
same,T/C,[3],90 % of control
same,T/C,"dose: 400.0 mg/kg/injection, schedule: Q04DX003 (ip), vehicle: Klucel (hydroxypropylcellulose) (HPC)",103 % of control
O=c1[nH]c(=O)c2ccccc2c2ccccc12,T/C,"dose: 100.0 mg/kg/injection, schedule: Q01DX009 (ip), vehicle: saline with Tween-80",99 % of control
same,T/C,"dose: 100.0 mg/kg/injection, schedule: Q04DX003 (ip), vehicle: saline with Tween-80",102 % of control
same,T/C,"dose: 200.0 mg/kg/injection, schedule: Q01DX009 (ip), vehicle: saline with Tween-80",86 % of control
same,T/C,"dose: 200.0 mg/kg/injection, schedule: Q04DX003 (ip), vehicle: saline with Tween-80",107 % of control
same,T/C,"dose: 400.0 mg/kg/injection, schedule: Q01DX009 (ip), vehicle: saline with Tween-80",93 % of control
same,T/C,"dose: 400.0 mg/kg/injection, schedule: Q04DX003 (ip), vehicle: saline with Tween-80",102 % of control
C=C1C(=O)OC2C1C(OC(=O)/C(=C/C)COC(C)=O)CC1(CO1)C1C(OC(=O)/C(=C/C)CO)C=C(C)C21 (stereo not drawn),T/C,[5],93 % of control
same,T/C,[1],93 % of control
same,T/C,[2],86 % of control
CNC(=O)OCCOC(=O)c1ccc(OC(=O)NC)cc1,T/C,"dose: 25.0 mg/kg/injection, schedule: Q01DX001 (ip), vehicle: carboxymethylcellulose (CMC)",109 % of control
same,T/C,"dose: 25.0 mg/kg/injection, schedule: Q01DX001 (ip), vehicle: other",96 % of control
same,T/C,"dose: 25.0 mg/kg/injection, schedule: Q01DX001 (ip), vehicle: saline",95 % of control
same,T/C,"dose: 45.0 mg/kg/injection, schedule: Q01DX001 (ip), vehicle: saline",91 % of control
same,T/C,[7],93 % of control
same,T/C,"dose: 50.0 mg/kg/injection, schedule: Q01DX001 (ip), vehicle: other",100 % of control
same,T/C,"dose: 50.0 mg/kg/injection, schedule: Q01DX001 (ip), vehicle: saline",96 % of control
same,T/C,"dose: 67.0 mg/kg/injection, schedule: Q01DX001 (ip), vehicle: saline",100 % of control
same,T/C,[8],103 % of control and 92 % of control
same,T/C,"dose: 100.0 mg/kg/injection, schedule: Q01DX001 (ip), vehicle: other",94 % of control
same,T/C,"dose: 100.0 mg/kg/injection, schedule: Q01DX001 (ip), vehicle: saline",95 % of control and 101 % of control and 202 % of control
same,T/C,"dose: 150.0 mg/kg/injection, schedule: Q01DX001 (ip), vehicle: saline",95 % of control
same,T/C,[9],97 % of control and 101 % of control
same,T/C,"dose: 200.0 mg/kg/injection, schedule: Q01DX001 (ip), vehicle: other",96 % of control
same,T/C,"dose: 200.0 mg/kg/injection, schedule: Q01DX001 (ip), vehicle: saline",88 % of control and 90 % of control
same,T/C,[10],97 % of control
same,T/C,"dose: 400.0 mg/kg/injection, schedule: Q01DX001 (ip), vehicle: saline",93 % of control and 90 % of control
CC(=O)OCC(Br)C(Br)COC(C)=O (stereo not drawn),T/C,"dose: 100.0 mg/kg/injection, schedule: Q01DX009 (ip), vehicle: saline",98 % of control
same,T/C,"dose: 200.0 mg/kg/injection, schedule: Q01DX009 (ip), vehicle: saline",95 % of control
same,T/C,"dose: 400.0 mg/kg/injection, schedule: Q01DX009 (ip), vehicle: saline",103 % of control
CC[n+]1cccc2cc(NC(=O)c3ccc(NC(=O)c4ccc(C(=O)Nc5ccc6c(ccc[n+]6CC)c5)cc4)cc3)ccc21,T/C,"dose: 0.5 mg/kg/injection, schedule: Q01DX Z (ip), vehicle: carboxymethylcellulose (CMC)",94 % of control
same,T/C,"dose: 1.0 mg/kg/injection, schedule: Q01DX Z (ip), vehicle: carboxymethylcellulose (CMC)",96 % of control
same,T/C,"dose: 2.5 mg/kg/injection, schedule: Q01DX Z (ip), vehicle: carboxymethylcellulose (CMC)",120 % of control
same,T/C,"dose: 5.0 mg/kg/injection, schedule: Q01DX Z (ip), vehicle: carboxymethylcellulose (CMC)",156 % of control
same,T/C,"dose: 8.9 mg/kg/injection, schedule: Q01DX Z (ip), vehicle: carboxymethylcellulose (CMC)",154 % of control
same,T/C,"dose: 13.3 mg/kg/injection, schedule: Q01DX Z (ip), vehicle: carboxymethylcellulose (CMC)",164 % of control
same,T/C,"dose: 20.0 mg/kg/injection, schedule: Q01DX Z (ip), vehicle: carboxymethylcellulose (CMC)",164 % of control
same,T/C,"dose: 30.0 mg/kg/injection, schedule: Q01DX Z (ip), vehicle: carboxymethylcellulose (CMC)",174 % of control
